What was measured:
galium = assay: Test C pre-/postemergence herbicide test; format: in vivo, Galium aparine
In short: (§1)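 Greenhouse pots; formulation = non-phytotoxic solvent mix + surfactant. PRE onto seeds in loam:sand; POST at 1–4 leaves (2–18 cm) in peat moss/vermiculite medium. Read-out: visual % control vs untreated, day 13–15.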

pigweed = assay: Test A pre-/postemergence herbicide test; format: in vivo, Amaranthus retroflexus
In short: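 Greenhouse pot test with pre- and postemergence application of surfactant-containing solvent formulations. Postemergence plants were 2–10 cm, one- to two-leaf stage. Response scored visually after ~10 days, 0 (no effect) to 100 (complete control).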

morningglory = assay: Test C pre-/postemergence herbicide test; format: in vivo, Ipomoea coccinea
In short: as §1

foxtail, giant = assay: Test C pre-/postemergence herbicide test; format: in vivo, Setaria faberii
In short: as §1

oat, wild = assay: Test C pre-/postemergence herbicide test; format: in vivo, Avena fatua; settings: Postemergence
In short: as §1

barnyardgrass = assay: Test C flooded paddy test; format: in vivo, Echinochloa crus-galli; settings: Flood
In short: (§2)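 2-leaf stage; flood 3 cm over soil; compound into paddy water; depth held; greenhouse 13–15 d; visual % control vs untreated (0 = none, 100 = complete); "-" = not tested.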

kochia = assay: Test C pre-/postemergence herbicide test; format: in vivo, Kochia scoparia; settings: Postemergence
In short: as §1

rice = assay: Test C flooded paddy test; format: in vivo, Oryza sativa; settings: Flood
In short: as §2

blackgrass = assay: Test A postemergence herbicide test; format: in vivo, Alopecurus myosuroides
In short: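 Injury was rated visually about 10 days after treatment on a 0 (no effect) to 100 (complete control) scale, compared with untreated plants. Test chemicals were sprayed postemergence onto greenhouse plants 2–10 cm high at one to two leaves, grown in a loam–sand blend.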

[1] = Postemergence, 31 g ai/ha, scale 0 to 100 (0 no effect, 100 complete control)
[2] = Postemergence, 62 g ai/ha, scale 0 (no effect) to 100 (complete control)
[3] = Postemergence, 125 g ai/ha, scale 0 to 100 (0 no effect, 100 complete control)
[4] = Postemergence, 250 g ai/ha, scale 0 to 100 (0 no effect, 100 complete control)
[5] = Preemergence, 31 g ai/ha, scale 0 to 100, 0 is no effect and 100 is complete control
[6] = Preemergence, 62 g ai/ha, scale 0 to 100 (0 no effect, 100 complete control)
[7] = Preemergence, 125 g ai/ha, scale 0 to 100 (0 no effect, 100 complete control)
[8] = preemergence, 500 g ai/ha, 0 to 100 scale, 0 is no effect and 100 is complete control
[9] = 31 g ai/ha, scale 0 to 100 (0 no effect, 100 complete control)
[10] = 62 g ai/ha, scale 0 (no effect) to 100 (complete control)
[11] = 125 g ai/ha, scale 0 to 100 (0 no effect, 100 complete control)
[12] = 250 g ai/ha, scale 0 to 100 (0 no effect, 100 complete control)
[13] = 125 g ai/ha, scale of 0 to 100 where 0 is no effect and 100 is complete control, 13 to 15 days
[14] = 250 g ai/ha, scale of 0 to 100 where 0 is no effect and 100 is complete control, 13 to 15 days
[15] = 125 g ai/ha, 0 to 100 scale, 0 is no effect, 100 is complete control
[16] = 62 g ai/ha, scale of 0 to 100 where 0 is no effect and 100 is complete control, 13 to 15 days

## O=C1NCC(c2cccc(C(F)(F)F)c2)C1C(=O)Nc1ccc(F)cc1F (racemic) [Compound 207]
galium; [1]
  Plant response rating, Galium: 0
galium; [2]
  Plant response rating, Galium: 0
galium; [3]
  Plant response rating, Galium: 0
galium; [4]
  Plant response rating, Galium: 50
galium; [5]
  Galium plant response rating: 0
galium; [6]
  Galium plant response rating: 0
galium; [7]
  Plant response rating, Galium: 85
galium; Preemergence, 250 g ai/ha
  Plant response rating (scale of 0 to 100), Galium: 90
pigweed; 125 g ai/ha, visual rating, 0 to 100 scale, 0 no effect, 100 complete control, approximately 10 days, preemergence
  Plant response rating, Pigweed: 0
pigweed; Postemergence, 125 g ai/ha, 0 to 100 scale, 0 is no effect, 100 is complete control
  Plant response rating, Pigweed: 0
pigweed; Postemergence, 500 g ai/ha
  Pigweed plant response rating (0 to 100 scale, 0 is no effect, 100 is complete control): 0
pigweed; [8]
  Plant response rating, Pigweed: 20
morningglory; [1]
  Plant response rating, Morningglory: 5
morningglory; [2]
  Plant response rating, Morningglory: 5
morningglory; [3]
  Plant response rating, Morningglory: 5
morningglory; [4]
  Plant response rating, Morningglory: 20
morningglory; [5]
  Morningglory plant response rating: 0
morningglory; [6]
  Morningglory plant response rating: 0
morningglory; [7]
  Plant response rating, Morningglory: 0
morningglory; Preemergence, 250 g ai/ha
  Plant response rating (scale of 0 to 100), Morningglory: 0
foxtail, giant; [1]
  Plant response rating, Foxtail, Giant: 20
foxtail, giant; [2]
  Plant response rating, Foxtail, Giant: 0
foxtail, giant; [3]
  Plant response rating, Foxtail, Giant: 65
foxtail, giant; [4]
  Plant response rating, Foxtail, Giant: 75
foxtail, giant; [5]
  Foxtail, Giant plant response rating: 85
foxtail, giant; [6]
  Foxtail, Giant plant response rating: 90
foxtail, giant; [7]
  Plant response rating, Foxtail, Giant: 90
foxtail, giant; Preemergence, 250 g ai/ha
  Plant response rating (scale of 0 to 100), Foxtail, Giant: 98
oat, wild; [9]
  Plant response rating, Oat, Wild: 0
oat, wild; [10]
  Plant response rating, Oat, Wild: 0
oat, wild; [11]
  Plant response rating, Oat, Wild: 0
oat, wild; [12]
  Plant response rating, Oat, Wild: 0
barnyardgrass; [13]
  Plant response rating, Barnyardgrass: 40
barnyardgrass; [14]
  Plant response rating, Barnyardgrass: 60
barnyardgrass; 500 g ai/ha, scale 0 to 100
  Plant response rating, Barnyardgrass: 70
barnyardgrass; 1000 g ai/ha, scale 0 to 100
  Plant response rating, Barnyardgrass: 75
kochia; [9]
  Plant response rating, Kochia: 0
kochia; [10]
  Plant response rating, Kochia: 0
kochia; [11]
  Plant response rating, Kochia: 0
kochia; [12]
  Plant response rating, Kochia: 30
rice; [13]
  Plant response rating, Rice: 15
rice; [14]
  Plant response rating, Rice: 15
rice; 500 g ai/ha, scale 0 to 100
  Plant response rating, Rice: 15
rice; 1000 g ai/ha, scale 0 to 100
  Plant response rating, Rice: 15
blackgrass; [15]
  Plant response rating, Blackgrass: 70
blackgrass; 500 g ai/ha
  Blackgrass plant response rating (0 to 100 scale, 0 is no effect, 100 is complete control): 70

## O=C1NCC(c2cccc(Cl)c2)C1C(=O)Nc1cccc(F)c1F (racemic) [Compound 275]
galium; [1]
  Plant response rating, Galium: 50
galium; [2]
  Plant response rating, Galium: 55
galium; [3]
  Plant response rating, Galium: 75
galium; [4]
  Plant response rating, Galium: 80
galium; [5]
  Galium plant response rating: 0
galium; [6]
  Galium plant response rating: 90
galium; [7]
  Plant response rating, Galium: 30
galium; Preemergence, 250 g ai/ha
  Plant response rating (scale of 0 to 100), Galium: 85
pigweed; Postemergence, 125 g ai/ha, visual rating on 0 to 100 scale (0 no effect, 100 complete control), approx. 10 days
  Plant response rating, Pigweed: 30
pigweed; Postemergence, 500 g ai/ha, 0 to 100 scale (0 no effect, 100 complete control)
  Plant response rating, Pigweed: 40
pigweed; Preemergence, 125 g ai/ha, 0 to 100 scale where 0 is no effect and 100 is complete control
  Plant response rating, Pigweed: 20
pigweed; [8]
  Plant response rating, Pigweed: 30
morningglory; [1]
  Plant response rating, Morningglory: 10
morningglory; [2]
  Plant response rating, Morningglory: 10
morningglory; [3]
  Plant response rating, Morningglory: 20
morningglory; [4]
  Plant response rating, Morningglory: 20
morningglory; [5]
  Morningglory plant response rating: 0
morningglory; [6]
  Morningglory plant response rating: 0
morningglory; [7]
  Plant response rating, Morningglory: 0
morningglory; Preemergence, 250 g ai/ha
  Plant response rating (scale of 0 to 100), Morningglory: 50
foxtail, giant; [1]
  Plant response rating, Foxtail, Giant: 10
foxtail, giant; [2]
  Plant response rating, Foxtail, Giant: 75
foxtail, giant; [3]
  Plant response rating, Foxtail, Giant: 35
foxtail, giant; [4]
  Plant response rating, Foxtail, Giant: 90
foxtail, giant; [5]
  Foxtail, Giant plant response rating: 90
foxtail, giant; [6]
  Foxtail, Giant plant response rating: 95
foxtail, giant; [7]
  Plant response rating, Foxtail, Giant: 98
foxtail, giant; Preemergence, 250 g ai/ha
  Plant response rating (scale of 0 to 100), Foxtail, Giant: 100
oat, wild; [9]
  Plant response rating, Oat, Wild: 0
oat, wild; [10]
  Plant response rating, Oat, Wild: 0
oat, wild; [11]
  Plant response rating, Oat, Wild: 0
oat, wild; [12]
  Plant response rating, Oat, Wild: 5
barnyardgrass; [16]
  Plant response rating, Barnyardgrass: 35
barnyardgrass; [13]
  Plant response rating, Barnyardgrass: 45
barnyardgrass; [14]
  Plant response rating, Barnyardgrass: 60
barnyardgrass; 500 g ai/ha, scale 0 to 100
  Plant response rating, Barnyardgrass: 70
kochia; [9]
  Plant response rating, Kochia: 70
kochia; [10]
  Plant response rating, Kochia: 85
kochia; [11]
  Plant response rating, Kochia: 85
kochia; [12]
  Plant response rating, Kochia: 85
rice; [16]
  Plant response rating, Rice: 0
rice; [13]
  Plant response rating, Rice: 0
rice; [14]
  Plant response rating, Rice: 10
rice; 500 g ai/ha, scale 0 to 100
  Plant response rating, Rice: 10
blackgrass; [15]
  Plant response rating, Blackgrass: 50
blackgrass; 500 g ai/ha, 0 to 100 scale (0 no effect, 100 complete control)
  Plant response rating, Blackgrass: 60

Reference: patent publication US10294202B2, “Pyrrolidinones as herbicides” (FMC Corporation, priority 2013, dated 2019)
